From US20240125767A1, “METHOD FOR EVALUATING DRUG TOXICITY” (Public University Corporation Yokohama City University, priority 2019, published 2024) come the findings set out here.

This data set has as its system DILI patient-derived organoid (liver organoid from iPS cells 16-24). How it is done:
Each of iPS cells derived from human healthy person (1383D2; Kyoto University iPS Research Institute) and iPS cells derived from patients with drug-induced liver injury (16-24; Yokohama City University) were cultured at 5% CO2 and 37° C. for 3 days in a medium obtained by adding 1% B-27 Supplements (GIBCO), BMP4 (25 ng/ml) and CHIR99021 (8 μM) to DMEM/F-12 (Gibco) (10 ml), to induce mesodermal cells.
Each of iPS cells derived from human healthy person (1383D2; Kyoto University iPS Research Institute) and iPS cells derived from patients with drug-induced liver injury (16-24; Yokohama City University) were cultured at 5% CO2 and 37° C. for 5 days in a medium obtained by adding Wnt3a (50 ng/mL) and activin A (100 ng/ml) to a basal medium RPMI (FUJIFILM Corporation) (2 ml), to induce endodermal progenitor cells.
Each of iPS cells derived from human healthy person (1383D2; Kyoto University iPS Research Institute) and iPS cells derived from patients with drug-induced liver injury (16-24; Yokohama City University) were cultured at 5% CO2 and 37° C. for 3 days in a medium obtained by adding 1% B-27 Supplements (GIBCO), BMP4 (25 ng/ml) and CHIR99021 (8 μM) to a basal mixed medium DMEM/F-12 (Gibco) (10 ml), to induce mesodermal progenitor cells. […]

Structures are written as SMILES.

For `CC1(C)S[C@@H]2[C@H](NC(=O)[C@H](N)c3ccc(O)cc3)C(=O)N2[C@H]1C(=O)O` [Amoxicillin trihydrate, amoxicillin trihydrate], the “Toxicity to liver organoid produced using cells derived from a DILI patient, co-cultured with blood cells (result in words)” value is “DILI was not observed”.
